Laboratory results from paper PMC12775434, “Ultra-large virtual screening unveils potent agonists of the neuromodulatory orphan receptor GPR139” (Nature Communications, 2025).
Where “and” joins values, the source holds several entries; their conditions need not be identical. Equal entries are not always repeated.

Key:
GPR139 [1] = target: T1, GPR139 (Homo sapiens, UniProt Q6DWJ6); assay: Ca2+ mobilization assay, agonist mode, stable GPR139-CHOk1 cell line; type: cell-based
T1 sequence (Q6DWJ6 1-353): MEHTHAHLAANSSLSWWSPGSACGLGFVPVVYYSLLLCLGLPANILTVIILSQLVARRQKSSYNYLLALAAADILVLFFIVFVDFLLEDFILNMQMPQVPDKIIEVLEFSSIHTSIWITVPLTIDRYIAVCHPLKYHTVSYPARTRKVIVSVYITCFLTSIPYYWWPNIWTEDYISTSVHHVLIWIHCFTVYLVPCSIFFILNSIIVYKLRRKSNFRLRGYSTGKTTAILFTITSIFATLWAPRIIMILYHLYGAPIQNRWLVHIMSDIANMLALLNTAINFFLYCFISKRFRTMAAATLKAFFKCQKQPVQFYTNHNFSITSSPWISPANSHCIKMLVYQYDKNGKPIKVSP
Experimental: Primary screening and pharmacological characterization of compounds were performed using a CHO-K1 cell line that stably expresses human GPR139 (GPR139-CHOk1). The GPR139-CHOk1 cell line was kindly provided by H. Lundbeck A/S, Denmark[24]. GPR139-CHOk1 cells were grown in Ham’s F-12 Kaighn’s Modification Medium (ThermoFisher #21127030) supplemented with 10% dialyzed fetal bovine serum (US origin, ThermoFisher #26400044), 100 units/mL Penicillin-Streptomycin (ThermoFisher #15140122), and 1 mg/mL Geneticin (ThermoFisher #11811031). […] M1R-CHOk1 cells were purchased from The Missouri S&T cDNA Resource Center (#CEM100TN00). M1R-CHOk1 cells were grown in Ham’s F12 Medium (ThermoFisher #21765029) supplemented with 10% fetal bovine serum (Brazilian origin, ThermoFisher #10270106), 100 units/mL Penicillin-Streptomycin, and 0.25 mg/mL Geneticin. HEK293A cells transiently transfected with GPR139 were used for additional pharmacological assessment of signaling pathways activated by GPR139. HEK239A cells were generously provided by Dr. Asuka Inoue, Tohoku University, Japan. HEK293A cells were grown in Dulbecco’s Modified Eagle Medium (ThermoFisher #31966047) supplemented with 10% dialyzed fetal bovine serum and 100 units/mL Penicillin-Streptomycin. Cell lines were maintained at 37 °C in humidified incubator equilibrated with 5% CO2.
(§1) 30,000 GPR139- or M1R-CHOk1 cells/well were seeded in black clear bottom tissue culture treated 96-well plates (Greiner #655090) and grown for 20–24 h. Cells were washed with HEPES buffer (Hank’s Balanced Salt Solution (HBBS) supplemented with 20 mM HEPES, 1 mM MgCl2, and 1 mM CaCl2; pH 7.4). Cells were loaded with 50 µL of 2 µM Fluo-4 AM dye (ThermoFisher #F14202) in HEPES buffer supplemented with 2.5 mM probenecid and 0.01% Pluronic F-68 (ThermoFisher #24040032) for 1 h at 37 °C. Cells were washed with HEPES buffer. 50 µL HEPES buffer supplemented with 2.5 mM probenecid was added, and the cells were incubated for 10 min at 37 °C before measurement. 50 µL test compounds diluted in HEPES buffer from DMSO stocks (final DMSO concentration of maximally 0.3%) were added automatically after baseline measurements. The intracellular calcium mobilization was measured on a FlexStation 3 Multimode Microplate Reader (Molecular Devices) at 37 °C with filters for excitation of 485 nm and emission of 525 nm.
(§2) Our primary compound screening protocol consisted of two subsequent steps that allowed to screen for agonists and antagonists simultaneously. In the first step, the screening compounds were applied at 10 µM to test for agonist activity (agonist mode). Following 20 min incubation with the compounds added in the first step, in the second step, an EC80 concentration (800 nM) of the reference agonist Lundbeck Cmp 1a was applied to test for antagonist activity (antagonist mode).
Pharmacological data and statistical analyses were performed in GraphPad Prism v9–10 (Graphpad Software Inc., San Diego, CA), which are also specifically described in the figure and table legends. The functional assay responses were normalized to buffer (0%) and Lundbeck Cmp 1a or JNJ-63533054 (100%), for Ca^2+ and IP1 experiments in the GPR139-CHOk1 stable cell line or Ca^2+, G protein activation, and arrestin-3 recruitment experiments in the HEK293A cells transiently transfected with GPR139, respectively. Data are from at least three independent experiments, unless stated otherwise. Concentration-response curves were fitted applying non-linear regression using the log (agonist) versus response model with variable slope. ANOVA was applied for comparing results and determining statistical significance.

GPR139 [2] = target: T1, GPR139; assay: Ca2+ mobilization assay, antagonist mode (EC80 800 nM Lundbeck Cmp 1a after 20 min preincubation), GPR139-CHOk1; type: cell-based
Experimental: as §1
as §2, with “(antagonist mode). In the agonist mode (first step) response is seen only with compounds having agonist activity (Cmp 1a), but not with non-receptor-binding compounds (Vehicle) or antagonists (NCRW0105-E06) (Supplementary Fig. 14). […] No antagonist compounds were identified in this study.” for “(antagonist mode).”

[3] = Agonist mode, individual replicates (Supplementary Figure 1)
[4] = individual replicates (Supplementary Figure 1)

Row | SMILES | Ca2+ signal (% of Cmp 1a) (GPR139 [1]; [3]) | Ca2+ signal (% of Cmp 1a) (GPR139 [2]; [4]) | further results
1 | CC(O)CN(Cc1ccccc1)C(=O)NCc1ccc(Cl)o1 (stereo not drawn) [Compound 19, CC(O)CN(CC=1C=CC=CC1)C(=O)NCC2=CC=C(Cl)O2] | 4 % of Cmp 1a and 5 % of Cmp 1a and 6.65 % of Cmp 1a | 78.3598 % of Cmp 1a and 79.4126 % of Cmp 1a and 77.319 % of Cmp 1a | Ca2+ signal (% of Cmp 1a) (GPR139 [1]; primary screen, 10 µM compound, agonist mode, three columns = independent experiments): 4 % of Cmp 1a and 5 % of Cmp 1a and 6.65 % of Cmp 1a
2 | Cc1sc2ncn(NC(=O)c3csc4cncn34)c(=O)c2c1C [Compound 23, CC=1SC=2N=CN(NC(=O)C3=CSC4=CN=CN34)C(=O)C2C1C] | -1 % of Cmp 1a and 11 % of Cmp 1a and -1.45 % of Cmp 1a | 92.3647 % of Cmp 1a and 68.6585 % of Cmp 1a and 94.6907 % of Cmp 1a | 
3 | O=C(CCn1nnc2ccccc2c1=O)Nc1ccc(F)c(F)c1F [Compound 33, FC=1C=CC(NC(=O)CCN2N=NC=3C=CC=CC3C2=O)=C(F)C1F] | -1.58 % of Cmp 1a and 1 % of Cmp 1a and 18 % of Cmp 1a | 80.4976 % of Cmp 1a and 74.4333 % of Cmp 1a and 82.6399 % of Cmp 1a | 
4 | COc1ccc2cc(-c3nc(CC(=O)NC(C)c4ccccc4)no3)sc2c1 (stereo not drawn) [Compound 1.36, COC1=CC2=C(C=C(C3=NC(CC(NC(C4=CC=CC=C4)C)=O)=NO3)S2)C=C1] |  |  | activation of GPR139 in analog screen (GPR139 [1]; 10 µM): All analogs, with the exception of compound 1.36, activated GPR139; Ca2+ signal (% of Cmp 1a) (GPR139 [1]; Agonist mode, individual replicates (Supplementary Figure 4)): 0 % of Cmp 1a and -15 % of Cmp 1a and -10 % of Cmp 1a; change in potency with larger substituents on the thiophene ring (GPR139 [1]; Ca2+ mobilization): three-fold reduction to a complete loss of activity; Ca2+ signal (% of Cmp 1a) (GPR139 [2]; individual replicates (Supplementary Figure 4)): 52 % of Cmp 1a and 69 % of Cmp 1a and 54 % of Cmp 1a
5 | C[C@@H](NC(=O)CSc1nnc2n1CCCCC2)c1ccccc1 [Compound 53, C[C@@H](NC(=O)CSC1=NN=C2CCCCCN12)C=3C=CC=CC3] | 10 % of Cmp 1a and 6 % of Cmp 1a and 3.73 % of Cmp 1a | 70.6126 % of Cmp 1a and 69.0784 % of Cmp 1a and 84.522 % of Cmp 1a | 
6 | O=C(NCC1CC=CCC1)Nc1cnn(-c2cnc3ccccc3n2)c1 (stereo not drawn) [Compound 28, O=C(NCC1CCC=CC1)NC=2C=NN(C2)C=3C=NC=4C=CC=CC4N3] | -7.43 % of Cmp 1a and 8 % of Cmp 1a and 9 % of Cmp 1a | 78.5136 % of Cmp 1a and 66.4897 % of Cmp 1a and 98.5524 % of Cmp 1a | 
7 | O=C(CCn1cnc2cc(Cl)ccc2c1=O)Nc1ccccc1F [Compound 46, FC=1C=CC=CC1NC(=O)CCN2C=NC=3C=C(Cl)C=CC3C2=O] | 2.73 % of Cmp 1a and -6 % of Cmp 1a (2×) | 71.2649 % of Cmp 1a and 88.164 % of Cmp 1a and 80.2917 % of Cmp 1a | 
8 | CC(=O)c1sc(NC(=O)Cc2cncs2)nc1-c1ccccc1 [Compound 36, CC(=O)C=1SC(NC(=O)CC2=CN=CS2)=NC1C=3C=CC=CC3] | 9 % of Cmp 1a and -3 % of Cmp 1a and 2.21 % of Cmp 1a | 88.0715 % of Cmp 1a and 92.8057 % of Cmp 1a and 66.8597 % of Cmp 1a | 
9 | Cc1ccc(C(C)NC(=O)Nc2ccc3c(c2)CCCC3=O)o1 (stereo not drawn) [Compound 49, CC(NC(=O)NC=1C=CC=2C(=O)CCCC2C1)C3=CC=C(C)O3] | 20 % of Cmp 1a and 6 % of Cmp 1a and 32 % of Cmp 1a | 51.3038 % of Cmp 1a and 78.2883 % of Cmp 1a and 60.6272 % of Cmp 1a | 
